Results taken from patent publication US6602987B1, “Azobenzene derivatives as labeling agents and intermediates thereof” (Yeda Research and Development Co., Ltd., priority 1998, dated 2003).

Key:
avidin = biological target: T1, avidin (Gallus gallus, UniProt P02701); test: Spectral shift of the HABA chromophore upon interaction with avidin; assay type: binding
T1 construct: purchased STC Laboratories (Winnipeg, Canada)
Experimental: (§1) The degree of modification is calculated, after purification from side-products, on the basis of UV absorption at 356 nm in PBS, at 415 nm in basic environment, or at 504 nm after addition of excess of avidin in PBS.
(§2) Interaction of the HABAylated proteins with avidin or with anti-HABA antibodies is verified by following the characteristic shift of the absorption of the HABA chromophore. Table 4 depicts the spectroscopic characteristics in the spectra range of the HABA-derivatives as free molecules (not bound to proteins) upon interaction with avidin or specific affinity purified antibodies.

[1] = system: affinity purified anti-HABA antibodies; test: Spectral shift of the HABA chromophore upon interaction with affinity purified anti-HABA antibodies; assay type: binding, rabbit
[2] = UV-Vis spectroscopic characteristics of free HABA and HABA-derivatives in buffer; assay type: physicochemical
Experimental: as §1, §2

[3] = +affinity purified anti-HABA in PBS, (1:1)

T1 sequence (P02701 25-152): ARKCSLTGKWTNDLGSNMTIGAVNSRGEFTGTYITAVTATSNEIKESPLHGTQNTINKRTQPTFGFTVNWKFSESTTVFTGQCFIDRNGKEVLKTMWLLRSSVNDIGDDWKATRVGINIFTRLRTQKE

O=C(O)c1ccccc1/N=N/c1ccc(O)cc1 [Compound 0, 4′-hydroxyazobenzene-2-carboxylic acid, reference compound]
ε[cm^−1M^−1] (avidin; +Avidin in PBS, (20:1)): 35,500 cm^−1M^−1 | λmax (nm) (avidin; +Avidin in PBS, (20:1)): 500 nm | ε500 nm of bound HABA (avidin; at 500 nm, HABA bound to nonlabeled avidin or anti-HABA antibodies): about 30,000 | ε[cm^−1M^−1] [1, 3]: 50,000 cm^−1M^−1 | λmax (nm) [1, 3]: 482 nm | ε[cm^−1M^−1] at λmax ([2]; PBS): 20,500 cm^−1M^−1 | λmax (nm) ([2]; PBS): 350 nm

NCCCCCCNC(=O)CCc1cc(N=Nc2ccccc2C(=O)O)ccc1O [Compound 16, 3′-(6-aminohexylaminocarbonylethyl)-4′-hydroxy-azobenzene-2-carboxylic acid]
ε[cm^−1M^−1] at λmax (avidin; PBS/AVIDIN): 30,000 cm^−1M^−1 | λmax (nm) (avidin; PBS/AVIDIN): 504 nm | ε[cm^−1M^−1] at λmax ([1]; PBS/anti-HABA): 50,000 cm^−1M^−1 | λmax (nm) ([1]; PBS/anti-HABA): 482 nm | ε[cm^−1M^−1] at λmax ([2]; 0.1 M AcOH): 12,500 cm^−1M^−1 | λmax (nm) ([2]; 0.1 M AcOH): 356 nm | ε[cm^−1M^−1] at λmax ([2]; 0.1 M NaOH): 15,000 cm^−1M^−1 | λmax (nm) ([2]; 0.1 M NaOH): 420 nm | ε[cm^−1M^−1] at λmax ([2]; PBS): 12,900 cm^−1M^−1 | λmax (nm) ([2]; PBS): 356 nm | ε280 nm ([2]; at 280 nm): 3,300

O=C(CCc1cc(N=Nc2ccccc2C(=O)O)ccc1O)NCCCCCCNC(=O)ON1C(=O)CCC1=O [Compound 17, 3′-(6-(succinimidyloxycarbonylamino)hexylaminocarbonylethyl)4′-hydroxy-azo-benzene-2-carboxylic acid]
ε[cm^−1M^−1] at λmax ([2]; 0.1 M AcOH): 12,200 cm^−1M^−1 | λmax (nm) ([2]; 0.1 M AcOH): 356 nm
